Measured values from patent US12357645B2, “Drug combination for treatment of gastric cancer” (priority 2023, dated 2025).

Tested on: patients with Advanced Gastrointestinal Tumors
Experiment: Phase 1 study of intravenous minnelide prodrug: safety
Type: in vivo, human
Source text: Intravenous Minnelide Prodrug. Phase 1, Multi-Center, Open-Label, Dose-Escalation, Safety, Pharmacokinetic, and Pharmacodynamic Study of minnelide prodrug given intravenously daily for 21 days followed by 7 days off schedule in patients with Advanced Gastrointestinal Tumors. A second dosing schedule of minnelide prodrug given intravenously QD for 5 days with 2 days off for three weeks followed by a 7-day rest period was also explored during this study.

## CC(C)[C@]12O[C@H]1[C@@H]1O[C@]13[C@]1(O[C@H]1C[C@H]1C4=C(CC[C@@]13C)C(=O)OC4)[C@@H]2OCOP(=O)([O-])[O-].[Na+].[Na+] [minnelide prodrug, disodium; [(1S,2S,4S,5S,7S,8R,9R,11S, 13S)-1-methyl-17-oxo-7-propan-2-yl-3,6,10,16-tetraoxaheptacyclo [11.7.0.0^2,4.0^2,9.0^5,7.0^9,11.0^14,18]icos-14 (18)-en-8-yl]oxymethyl phosphate]
  Anemia and thrombocytopenia Grade 3 and 4 (drug related), share of patients: 22%
  Serious Adverse Events related to the study drug: six
  Serious Adverse Events, number: 28
  TEAE cases considered DLTs: two
  other possibly related side effects of any grade (nausea, vomiting, diarrhea, constipation, anorexia, stomatitis, cerebellar toxicity, embolism, dyspnea), share of patients: ≤ 3%
  patients with Serious Adverse Events: 17
  patients with at least 1 AE considered related to the study drug: 32
  patients with neutropenic fever and neutropenic infection (drug related): three
42 patients dosed, after study drug ended, within 30-day follow-up, not related to study drug
  deaths in the study: 6
All Grade 3
  patients who discontinued study drug due to TEAEs: 3
All dose levels
  resolution of grade 3 and 4 neutropenia after not receiving treatment: within a couple of days
